System: human myeloma cell line MM.1S
Assay: SILAC acetylated-lysine peptide profiling, HDAC inhibitor vs DMSO (light/heavy ratio)
Type: cell-based
From the text: An embodiment of the invention comprises utilizing the SILAC method in order to quantitate changes in protein expression between two or more populations of cells. The SILAC method is a technique based on mass spectrometry that detects differences in protein abundance among samples using non-radioactive isotopic labeling. The SILAC method is known in the art, and described in detail in Ong et al., “Stable Isotope Labeling by Amino Acids in Cell Culture, SILAC, as a Simple and Accurate Approach to Expression Proteomics”, Molecular & Cellular Proteomics, vol. 1, pp. 376-386 (2002), which is incorporated herein by reference in its entirety.
Briefly, the SILAC method involves growing two populations of cells in cell culture. The first population of cells is grown in growth media containing normal amino acids (“normal media”). The second population of cells is grown in media lacking a standard essential amino acid (such as lysine), but is then supplemented with a non-radioactive, isotopically labeled form of that essential amino acid (such as lysine labeled with ^13C atoms, rather than normal ^12C atoms), which is called “heavy media”. When the two populations of cells are each growing in the medium, they incorporate the amino acids into all of their proteins. The growth of cells maintained in the heavy media is no different from that in normal media. All peptides containing the heavy amino acids are heavier than their normal counterparts. The cells from each of the two populations of cells are lysed. The lysates from each of the two cell populations are then combined. The combined cell lysates are then analyzed by mass spectrometry. Pairs of chemically identical peptides of different stable isotope composition can be differentiated in a mass spectrometer due to their difference in mass. The ratio of peak intensities in the mass spectrum for such peptide pairs reflects the abundance ratio for the two proteins.
This example describes SILAC studies that were performed to compare the effects of three different HDAC inhibitors (Compound A, Compound B, and tubastatin A) to a control on a human multiple myeloma cell line. The HDAC inhibitors were also compared amongst themselves to determine differences in their effects.
A human myeloma cell line MM.1S was grown using either ^12C (light) or ^13C (heavy) lysine containing culture medium. The “heavy” cells were treated with DMSO as the control, and the “light” cells were treated with a single HDAC inhibitor at 37° C. for 6 hours. The heavy and light cells were lysed, and the lysates were mixed in 1:1 ratio and digested with the protease trypsin. The acetylated lysine containing peptides (due to the action of the HDAC inhibitor) in the digested peptide pool were captured by a non-specific anti-acetylated lysine antibody cocktail (the antibodies identify both light and heavy acetylated peptides), and subjected to mass spectrometry analysis in order to identify thousands of individual peptides.
Thousands of peptides were identified in pairs (^12C and ^13C) due to their known mass differences. The amino acid sequence and quantitative ratio (Light/Heavy) of a given peptide in two differentially treated cell lysates were then determined and annotated with their possible protein (gene) sources.
As stated above, three HDAC inhibitors (Compound A, Compound B, and Tubastatin A) were used. Thus, the SILAC method was performed three times, with a different HDAC inhibitor compared to a control each time. Accordingly, there are three pairs of quantitative data in the table below, i.e., Compound A:DMSO, Compound B:DMSO, and Tubastatin A:DMSO. A cut-off of 1.30 fold of change (increase or decrease) was then used to determine “changed” or “+” in the table, and any peptides with a fold of change less than 1.3 fold were determined to be “unchanged” or “0” in the table. Those peptides that were not identified were marked as “NA” in the table. […]

With `O=C(CCCCCCNC(=O)c1cnc(N(c2ccccc2)c2ccccc2)nc1)NO` [Compound A, 2-(diphenylamino)-N-(7-(hydroxyamino)-7-oxoheptyl)pyrimidine-5-carboxamide] the “L/H ratio of acetylated peptide TVGQLYK(ac)EQLAK” value (SEQ ID NO: 731, Isoform 1 of Myosin-9 [651], MYH9) was 0.75 log 2, the “L/H ratio of acetylated peptide AAETCQEPK(ac)EFR” value (SEQ ID NO: 732, NADH dehydrogenase [ubiquinone] 1 alpha subcomplex assembly factor 4 [91], NDUFAF4) was 0.75 log 2 and the “L/H ratio of acetylated peptide VVLIGDSGVGK(ac)SNLLSR” value (SEQ ID NO: 733, Ras-related protein Rab-11B [24], RAB11B) was 0.76 log 2. The “L/H ratio of acetylated peptide SGK(ac)YVLGYK” value (SEQ ID NO: 734, 60S ribosomal protein L30 [26], RPL30) was 0.76 log 2, the “L/H ratio of acetylated peptide ILMEHIHK(ac)LK” value (SEQ ID NO: 735, 60S ribosomal protein L19 [144], RPL19) was 0.76 log 2 and the “L/H ratio of acetylated peptide EK(ac)VFYSLMR” value (SEQ ID NO: 736, Epoxide hydrolase 1 [288], EPHX1) was 0.78 log 2. The “L/H ratio of acetylated peptide K(ac)FDQLLAEEK” value (SEQ ID NO: 737, Isoform 1 of Myosin-9 [1445], MYH9) was 0.78 log 2, the “L/H ratio of acetylated peptide FVEFDMK(ac)PVCK” value (SEQ ID NO: 738, Isoform 2 of LIM and senescent cell antigen-like-containing domain protein 2 [326], LIMS2) was 0.79 log 2 and the “L/H ratio of acetylated peptide K(ac)GFITVDGR” value (SEQ ID NO: 739, Laminin subunit alpha-1 [2808], LAMA1) was 0.79 log 2. For the same compound, the “L/H ratio of acetylated peptide KAEAQIAAK(ac)NLDK” value (SEQ ID NO: 740, Aspartate aminotransferase mitochondrial [90], GOT2) was 0.80 log 2, the “L/H ratio of acetylated peptide DK(ac)QFVAK” value (SEQ ID NO: 741, Staphylococcal nuclease domain-containing protein 1 [341], SND1) was 0.80 log 2 and the “L/H ratio of acetylated peptide AGACNTVIK(ac)QLMR” value (SEQ ID NO: 742, Isoform SERCA3B of Sarcoplasmic/endoplasmic reticulum calcium ATPase 3 [476], ATP2A3) was 0.82 log 2. For the same compound, the “L/H ratio of acetylated peptide KQQAK(ac)FDECVLDK” value (SEQ ID NO: 743, NADH dehydrogenase [ubiquinone] 1 alpha subcomplex subunit 8 [106], NDUFA8) was 0.82 log 2, the “L/H ratio of acetylated peptide ALCTGEK(ac)GFGYK” value (SEQ ID NO: 744, Peptidyl-prolyl cis-trans isomerase F mitochondrial [86], PPIF) was 0.82 log 2 and the “L/H ratio of acetylated peptide IYK(ac)SDGIK” value (SEQ ID NO: 745, ADP/ATP translocase 2 [166], SLC25A5) was 0.83 log 2. For the same compound, the “L/H ratio of acetylated peptide DEGGK(ac)AFFK” value (SEQ ID NO: 746, ADP/ATP translocase 2 [268], SLC25A5) was 0.84 log 2, the “L/H ratio of acetylated peptide SYLK(ac)EFR” value (SEQ ID NO: 747, Isoform 1 of Trans-23-enoyl-CoA reductase [291], TECR) was 0.85 log 2 and the “L/H ratio of acetylated peptide VPK(ac)TAENFR” value (SEQ ID NO: 748, Peptidyl-prolyl cis-trans isomerase D [43], PPID) was 0.85 log 2. For the same compound, the “L/H ratio of acetylated peptide VNCLDK(ac)FWHK” value (SEQ ID NO: 749, Isoform 1 of LIM and SH3 domain protein 1 [23], LASP1) was 0.85 log 2, the “L/H ratio of acetylated peptide KGEDFVK(ac)TLK” value (SEQ ID NO: 750, Malate dehydrogenase mitochondrial [335], MDH2) was 0.85 log 2 and the “L/H ratio of acetylated peptide EAEFTK(ac)SIAK” value (SEQ ID NO: 751, Signal peptidase complex subunit 2 [191], LOC653566, SPCS2) was 0.86 log 2. For the same compound, the “L/H ratio of acetylated peptide SGYYK(ac)VLGK” value (SEQ ID NO: 752, 60S ribosomal protein L27a [110], RPL27A) was 0.86 log 2, the “L/H ratio of acetylated peptide YVLGYK(ac)QTLK” value (SEQ ID NO: 753, 60S ribosomal protein L30 [32], RPL30) was 0.87 log 2 and the “L/H ratio of acetylated peptide FEDK(ac)TVAYTEQK” value (SEQ ID NO: 754, Protein disulfide-isomerase A3 [218], PDIA3) was 0.88 log 2. For the same compound, the “L/H ratio of acetylated peptide IVNALK(ac)SQVDK” value (SEQ ID NO: 755, Ornithine aminotransferase mitochondrial [102], OAT) was 0.88 log 2, the “L/H ratio of acetylated peptide ILEFFGLK(ac)K” value (SEQ ID NO: 756, Protein disulfide-isomerase [308], P4HB) was 0.89 log 2 and the “L/H ratio of acetylated peptide LCGQDLNK(ac)TSR” value (SEQ ID NO: 757, Isoform 1 of UDP-N-acetylglucosamine--dolichyl-phosphate N-acetylglucosaminephospho-, DPAGT1) was 0.89 log 2. For the same compound, the “L/H ratio of acetylated peptide” value (SFDK(ac)NLYR (SEQ ID NO: 477), DNA replication licensing factor MCM4 [220], MCM4) was −0.55 log 2, the “L/H ratio of acetylated peptide LFAK(ac)[…] (SEQ ID NO: 98)” value (SFPQ [319], log 2 scale, drug vs DMSO) was 0.00 and the “L/H ratio of acetylated peptide […](ac)GK (SEQ ID NO: 99)” value (SFPQ [330], log 2 scale, drug vs DMSO) was 0.00. For the same compound, the “L/H ratio of acetylated peptide GFGFIK(ac)LESR (SEQ ID NO: 97)” value (SFPQ [338], log 2 scale, drug vs DMSO) was 0.00, the “L/H ratio of acetylated peptide […](ac)MILIGR (SEQ ID NO: 100)” value (SFXN1 [86], log 2 scale, drug vs DMSO) was 0.00 and the “L/H ratio of acetylated peptide […](ac)DK (SEQ ID NO: 103)” value (SLC25A5 [92], log 2 scale, drug vs DMSO) was 0.00. The “L/H ratio of acetylated peptide AFFK(ac)GAWSNVLR (SEQ ID NO: 102)” value (SLC25A5 [272], log 2 scale, drug vs DMSO) was 0.00, the “L/H ratio of acetylated peptide […](ac)ANVAK (SEQ ID NO: 101)” value (SLC25A10 [173], log 2 scale, drug vs DMSO) was 0.00 and the “L/H ratio of acetylated peptide TWEK(ac)LLLAAR (SEQ ID NO: 104)” value (SNORA6, RPSAP15, SNORA62, RPSA [57], log 2 scale, drug vs DMSO) was 0.00.

From patent publication US20140357512A1, “HISTONE DEACETYLASE (HDAC) BIOMARKERS IN MULTIPLE MYELOMA” (priority 2013, published 2014)
